Laboratory results as given in patent US9850283B2, “Macrocyclic inhibitors of the PD-1/PD-L1 and CD80(B7-1)/PD-L1 protein/protein interactions” (BRISTOL-MYERS SQUIBB COMPANY, priority 2013, dated 2017).
Where two headings read alike, the source gives them in different places. Positions of bridges follow the written chain, without caps; N, C: chain ends. Non-standard residues stand in square brackets, D forms with d. Residues, ends and D or L forms follow the SMILES beside them. ξ: configuration not given here. NMeW = CN[C@@H](Cc1c[nH]c2ccccc12)C(=O)O; Phe(4-F) = N[C@@H](Cc1ccc(F)cc1)C(=O)O; Bta = N[C@@H](Cc1csc2ccccc12)C(=O)O; ξPro(4R-OH) = O=C(O)C1C[C@@H](O)CN1; ξPro(4,4-F2) = O=C(O)C1CC(F)(F)CN1; Hyp = O=C(O)[C@@H]1C[C@@H](O)CN1; NMeF = CN[C@@H](Cc1ccccc1)C(=O)O; ξW = NC(Cc1c[nH]c2ccccc12)C(=O)O; dNMeNle = CCCC[C@@H](NC)C(=O)O; NMehSer = CN[C@@H](CCO)C(=O)O; NMeNle = CCCC[C@H](NC)C(=O)O; NMeA = CN[C@@H](C)C(=O)O; dDap = NC[C@@H](N)C(=O)O; Dab = NCC[C@H](N)C(=O)O; Dap = NC[C@H](N)C(=O)O; ξP = O=C(O)C1CCCN1; ξC = NC(CS)C(=O)O; Sar = CNCC(=O)O

Key:
Human PD-L1/PD-1 = molecular target: T1, Human PD-L1/PD-1 (Homo sapiens, UniProt Q9NZQ7); test: HTRF PD-1-Ig/PD-L1-His binding assay (human PD-L1); settings: cluster symbol; read-out: HTRF IC50 cluster
T1 construct: made in house; host or cells: HEK293T
Outline: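 Interaction of Fc-tagged soluble PD-1 with His-tagged soluble PD-L1 is monitored by time-resolved FRET. Donor is europium cryptate anti-Ig (1 nM final) and acceptor is APC anti-His (20 nM final). Assay buffer is dPBS with 0.1% BSA and 0.05% Tween-20.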

[1] = molecular target: T2, LK35.2-hPD-L1 cells / PE-labeled PD-1-Ig (Homo sapiens, UniProt Q9NZQ7); test: LK35.2-hPD-L1 cell binding high-content screening assay; type: cell-based; settings: cluster symbol, read-out: CBA IC50 cluster
T2 construct: expressed in transfected cells; host or cells: LK35.2 mouse B cell line
Outline: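 Fluorescent PD-1-Ig binding to PD-L1-expressing LK35.2 cells, imaged after washing. Conditions: 1 nM PE-PD-1-Ig, 37 °C, 1 h, RPMI with 10% fetal calf serum.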

[2] = cell line of CBA not given (LK35.2-hPD-L1 or 293T-hPD-L1)
[3] = cell binding assay, cell line not given

T2 sequence (Q9NZQ7 19-290): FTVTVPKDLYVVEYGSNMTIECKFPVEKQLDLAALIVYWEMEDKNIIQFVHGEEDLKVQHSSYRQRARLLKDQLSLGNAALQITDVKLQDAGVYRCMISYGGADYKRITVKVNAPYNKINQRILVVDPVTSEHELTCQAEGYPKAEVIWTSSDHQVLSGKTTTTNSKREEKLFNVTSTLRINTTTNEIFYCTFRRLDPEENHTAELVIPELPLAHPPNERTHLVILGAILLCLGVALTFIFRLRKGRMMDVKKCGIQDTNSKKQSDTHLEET
T1 sequence (Q9NZQ7 with tags, fused parts or gaps): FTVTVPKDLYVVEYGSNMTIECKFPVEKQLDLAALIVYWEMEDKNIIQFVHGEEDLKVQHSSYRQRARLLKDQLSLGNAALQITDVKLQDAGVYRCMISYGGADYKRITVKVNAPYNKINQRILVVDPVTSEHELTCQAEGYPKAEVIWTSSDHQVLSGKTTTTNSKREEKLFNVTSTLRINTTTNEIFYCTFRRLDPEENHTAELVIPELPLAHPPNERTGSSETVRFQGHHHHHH

## CCCC[C@H]1C(=O)N(C)[C@@H](CCCC)C(=O)N[C@@H](CCCNC(=N)N)C(=O)N[C@H](C(=O)NCC(N)=O)CSCC(=O)N[C@@H](Cc2ccc(O)cc2)C(=O)N(C)[C@@H](C)C(=O)N[C@@H](CC(N)=O)C(=O)N2CCC[C@H]2C(=O)N[C@@H](Cc2cnc[nH]2)C(=O)N[C@@H](CCC(=O)O)C(=O)N2CCC[C@H]2C(=O)N[C@@H](Cc2c[nH]c3ccccc23)C(=O)N[C@@H](CO)C(=O)N[C@@H](Cc2c[nH]c3ccccc23)C(=O)N1C [Example 1090] ({CH2CO}-Y[NMeA]NPHEPWSW[NMeNle][NMeNle]RCG-NH2; thioether N-14)
Human PD-L1/PD-1
  IC50: 0.385 to 6.74 nM
[1]; [2]
  IC50: 0.158 to 4.71 nM

## CCCC[C@H]1C(=O)N(C)[C@@H](CCCC)C(=O)N[C@@H](CCCNC(=N)N)C(=O)NC(C(=O)NCC(N)=O)CSCC(=O)N[C@@H](Cc2ccc(O)cc2)C(=O)N(C)[C@@H](C)C(=O)N[C@@H](CC(N)=O)C(=O)N2CCC[C@H]2C(=O)N[C@@H](CC(N)=O)C(=O)N[C@@H](CC(C)C)C(=O)N2C[C@H](O)C[C@H]2C(=O)N[C@@H](Cc2c[nH]c3ccccc23)C(=O)N[C@@H](CO)C(=O)N[C@@H](Cc2csc3ccccc23)C(=O)N1C (stereo partly shown) [Example 9062] ({CH2CO}-Y[NMeA]NPNL[Hyp]WS[Bta][NMeNle][NMeNle]R[ξC]G-NH2; thioether N-14)
Human PD-L1/PD-1
  IC50: 0.385 to 6.74 nM
[1]; [3]
  IC50: 0.158 to 4.71 nM

## CCCC[C@H]1C(=O)N(C)[C@@H](CCCC)C(=O)N[C@@H](CN)C(=O)N[C@H](C(=O)NCC(N)=O)CSCC(=O)N[C@@H](Cc2ccc(O)cc2)C(=O)N2CCC[C@H]2C(=O)N[C@@H](CC(=O)O)C(=O)N2CCC[C@H]2C(=O)N[C@@H](CN)C(=O)N[C@@H](CCC(N)=O)C(=O)N2C[C@H](O)CC2C(=O)N[C@@H](Cc2c[nH]c3ccccc23)C(=O)N[C@@H](CCN)C(=O)N[C@@H](Cc2csc3ccccc23)C(=O)N1C (stereo partly drawn) [Example 1228] ({CH2CO}-YPDP[Dap]Q[ξPro(4R-OH)]W[Dab][Bta][NMeNle][NMeNle][Dap]CG-NH2; thioether N-14)
Human PD-L1/PD-1
  IC50: 6.76 to 30.3 nM
[1]; [2]
  IC50: 4.78 to 72.9 nM

## CCCC[C@H]1C(=O)N(C)[C@@H](CCCC)C(=O)N[C@@H](CCCNC(=N)N)C(=O)N[C@H](C(=O)NCC(N)=O)CSCC(=O)N[C@@H](Cc2ccc(O)cc2)C(=O)N(C)[C@@H](C)C(=O)N[C@@H](CC(N)=O)C(=O)N2CCC[C@H]2C(=O)N[C@@H](CN)C(=O)N[C@@H](CCC(N)=O)C(=O)N2C[C@H](O)C[C@H]2C(=O)N[C@@H](Cc2c[nH]c3ccccc23)C(=O)N[C@@H](CO)C(=O)N[C@@H](Cc2csc3ccccc23)C(=O)N1C [Example 6023] ({CH2CO}-Y[NMeA]NP[Dap]Q[Hyp]WS[Bta][NMeNle][NMeNle]RCG-NH2; thioether N-14)
Human PD-L1/PD-1
  IC50: 6.76 to 30.3 nM
[1]; [3]
  IC50: 0.158 to 4.71 nM

## CCCC[C@H]1C(=O)N[C@@H](CCCNC(=N)N)C(=O)N[C@H](C(=O)NCC(N)=O)CSCC(=O)N[C@@H](Cc2ccccc2)C(=O)N(C)[C@@H](C)C(=O)N[C@@H](CC(N)=O)C(=O)N2CCC[C@H]2C(=O)N[C@@H](Cc2cnc[nH]2)C(=O)N[C@@H](CC(C)C)C(=O)N(C)CC(=O)N[C@@H](Cc2c[nH]c3ccccc23)C(=O)N[C@@H](CO)C(=O)N(C)[C@@H](Cc2c[nH]c3ccccc23)C(=O)N(C)[C@@H](CCCC)C(=O)N1C [Example 1031] ({CH2CO}-F[NMeA]NPHL[Sar]WS[NMeW][NMeNle][NMeNle]RCG-NH2; thioether N-14)
Human PD-L1/PD-1
  IC50: > 30.5 nM
[1]; [2]
  IC50: > 74.3 nM

## CCCC[C@H]1C(=O)N[C@@H](CCCNC(=N)N)C(=O)NC(C(=O)NCC(N)=O)CSCC(=O)N[C@@H](Cc2ccc(O)cc2)C(=O)N(C)[C@@H](C)C(=O)N[C@@H](CC(=O)O)C(=O)N2CCC[C@H]2C(=O)N[C@@H](Cc2cnc[nH]2)C(=O)N[C@@H](CC(C)C)C(=O)N2CCC[C@H]2C(=O)N[C@@H](Cc2c[nH]c3ccccc23)C(=O)N[C@@H](CO)C(=O)N[C@@H](Cc2csc3ccccc23)C(=O)N(C)[C@@H](CCOC)C(=O)N1C (stereo partly shown) [Example 9009] ({CH2CO}-Y[NMeA]DPHLPWS[Bta][NMehSer](Me)[NMeNle]R[ξC]G-NH2; thioether N-14)
Human PD-L1/PD-1
  IC50: 6.76 to 30.3 nM
[1]; [3]
  IC50: 4.78 to 72.9 nM

## CCCC[C@@H]1C(=O)N(C)[C@H](CCCC)C(=O)N[C@@H](C)C(=O)N[C@@H](C(=O)NCC(N)=O)CSCC(=O)N[C@@H](Cc2ccc(O)cc2)C(=O)N2CCCC2C(=O)N[C@H](CC(N)=O)C(=O)N2CCC[C@H]2C(=O)N[C@H](CN)C(=O)N[C@@H](CCC(N)=O)C(=O)N2CCCC2C(=O)N[C@H](Cc2c[nH]c3ccccc23)C(=O)N[C@@H](CCN)C(=O)N[C@@H](Cc2c[nH]c3ccccc23)C(=O)N1C (stereo partly shown) [Example 1211] ({CH2CO}-Y[ξP][dN]P[dDap]Q[ξP][dW][Dab]W[dNMeNle][dNMeNle]A[dC]G-NH2; thioether N-14)
Human PD-L1/PD-1
  IC50: 6.76 to 30.3 nM
[1]; [2]
  IC50: > 74.3 nM

## CCCC[C@H]1C(=O)N(C)[C@@H](CCCC)C(=O)N[C@@H](CCCNC(=N)N)C(=O)N[C@H](C(=O)NCC(N)=O)CSCC(=O)N[C@@H](Cc2ccc(O)cc2)C(=O)N(C)[C@@H](C)C(=O)N[C@@H](CC(N)=O)C(=O)N2CC(F)(F)CC2C(=O)N[C@@H](Cc2cnc[nH]2)C(=O)N[C@@H](CC(C)C)C(=O)N2CCC[C@H]2C(=O)NC(Cc2c[nH]c3ccccc23)C(=O)N[C@@H](CO)C(=O)N[C@@H](Cc2csc3ccccc23)C(=O)N1C (stereo partly shown) [Example 1048] ({CH2CO}-Y[NMeA]N[ξPro(4,4-F2)]HLP[ξW]S[Bta][NMeNle][NMeNle]RCG-NH2; thioether N-14)
Human PD-L1/PD-1
  IC50: 6.76 to 30.3 nM
[1]; [2]
  IC50: 0.158 to 4.71 nM

## CCCC[C@H]1C(=O)N(C)CC(=O)N[C@@H](CC(=O)O)C(=O)N[C@@H](C(C)C)C(=O)N(C)[C@@H](Cc2ccccc2)C(=O)N[C@@H](Cc2ccc(F)cc2)C(=O)N(C)CC(=O)N[C@@H](Cc2c[nH]c3ccccc23)C(=O)N[C@@H](Cc2ccc(O)cc2)C(=O)N[C@@H](CC(C)C)C(=O)N[C@H](C(=O)NCC(N)=O)CSCC(=O)N[C@@H](Cc2ccccc2)C(=O)N(C)[C@@H](Cc2ccccc2)C(=O)N1C [Example 3077] ({CH2CO}-F[NMeF][NMeNle][Sar]DV[NMeF][Phe(4-F)][Sar]WYLCG-NH2; thioether N-13)
Human PD-L1/PD-1
  IC50: > 30.5 nM
[1]; [2]
  IC50: > 74.3 nM

## CCCC[C@H]1C(=O)N(C)[C@@H](CCCC)C(=O)N[C@@H](CCCNC(=N)N)C(=O)N[C@H](C(=O)NCC(N)=O)CSCC(=O)N[C@@H](Cc2ccc(OC)cc2)C(=O)N(C)[C@@H](C)C(=O)N[C@@H](CC(N)=O)C(=O)N2CCC[C@H]2C(=O)N[C@@H](CN)C(=O)N[C@@H](CC(C)C)C(=O)N2C[C@H](O)C[C@H]2C(=O)N[C@@H](Cc2c[nH]c3ccccc23)C(=O)N[C@@H](CO)C(=O)N[C@@H](Cc2c[nH]c3ccccc23)C(=O)N1C [Example 7039] ({CH2CO}-Y(Me)[NMeA]NP[Dap]L[Hyp]WSW[NMeNle][NMeNle]RCG-NH2; thioether N-14)
Human PD-L1/PD-1
  IC50: 0.385 to 6.74 nM
[1]; [3]
  IC50: 0.158 to 4.71 nM

## CCCC[C@H]1C(=O)N(C)[C@@H](CCCC)C(=O)N[C@@H](CCN)C(=O)N[C@H](C(=O)NCC(N)=O)CSCC(=O)N[C@@H](Cc2ccccc2)C(=O)N(C)[C@@H](C)C(=O)N[C@@H](CC(N)=O)C(=O)N2CCC[C@H]2C(=O)N[C@@H](Cc2cnc[nH]2)C(=O)N[C@@H](CC(C)C)C(=O)N(C)CC(=O)N[C@@H](Cc2c[nH]c3ccccc23)C(=O)N[C@@H](CO)C(=O)N[C@@H](Cc2c[nH]c3ccccc23)C(=O)N1C [Example 5006] ({CH2CO}-F[NMeA]NPHL[Sar]WSW[NMeNle][NMeNle][Dab]CG-NH2; thioether N-14)
Human PD-L1/PD-1
  IC50: 0.385 to 6.74 nM
[1]; [3]
  IC50: 4.78 to 72.9 nM
